Literature values, collected in US20120214870A1, “METHODS FOR DIAGNOSIS AND TREATMENT OF CHRONIC FATIGUE SYNDROME” (UNIVERSITY OF SOUTH AUSTRALIA, priority 2009, published 2012).
“Also recorded” adds a separate entry of the source.

Key:
[1] = tested on: CFS patients
[2] = tested on: CPT-I; conditions: Yoon et al., 2003; Amengual et al., 2008

CCC(=O)O[C@H](CC(=O)[O-])C[N+](C)(C)C [C3, propionyl-L-carnitine]
general and physical fatigue ([1]; administration (Vermeulen & Scholte, 2004)): significant improvements

CC(=O)O[C@H](CC(=O)[O-])C[N+](C)(C)C [C2, acetyl-L-carnitine]
mental fatigue and attention concentration ([1]; supplementation (Vermeulen & Scholte, 2004; Malaguarnera et al. 2008)): significant improvements

CC1=C(/C=C/C(C)=C/C=C/C(C)=C/C(=O)O)C(C)(C)CCC1 [all-trans retinoic acid, reference compound]
CPT-I expression or activity [2]: upregulate

C[N+](C)(C)C[C@H](O)CC(=O)[O-] [LC, L-carnitine]
CPT-I expression or activity [2]: increase; also recorded: upregulate
fatigue severity in CFS patients ([1]; after 2 months of supplementation (Plioplys and Plioplys, 1997)): significantly reduce
